Data on 22 compounds can be found in ChEMBL document CHEMBL1135303, “Design and synthesis of aminophenol-based factor Xa inhibitors” (Bioorg Med Chem Lett, 2002).

Test [1] concerns the target Coagulation factor X (Homo sapiens, UniProt P00742). Briefly: Competitive inhibition of coagulation factor Xa.
In test [2] the target is T1, Prothrombin (Homo sapiens, UniProt P00734). Briefly: Competitive inhibition of coagulation factor IIa.
Test [3] concerns the target Serine protease 1 (Homo sapiens) (UniProt P07477). Briefly: The selectivity ratio for Trypsin and Coagulation factor Xa was determined.
Test [4] has as its target T1, Prothrombin. As to the kind of experiment: Concentration required for twofold increase in thrombin clotting time in human plasma. The format is functional, cell-free.
The target in test [5] is T1, Prothrombin. Briefly: Concentration required to double the prothrombin based clotting time in human plasma. The format is functional, cell-free.
The target in test [6] is T2, Serine protease 1 (Bos taurus, UniProt P00760).
T2 sequence (P00760 whole entry): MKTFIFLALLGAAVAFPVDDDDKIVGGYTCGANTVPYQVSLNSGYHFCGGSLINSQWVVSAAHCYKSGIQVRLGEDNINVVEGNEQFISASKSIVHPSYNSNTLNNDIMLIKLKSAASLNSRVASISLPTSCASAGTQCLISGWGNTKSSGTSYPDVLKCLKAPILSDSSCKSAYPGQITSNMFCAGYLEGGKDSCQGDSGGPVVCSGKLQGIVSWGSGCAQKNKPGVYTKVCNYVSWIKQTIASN
Briefly: Competitive inhibition of trypsin.

Bounds are passed on as bounds.

By Ki is commonly meant the dissociation constant of the complex between target and ligand, obtained from inhibition or displacement. Turning to `CC(=N)N1CCC(Oc2ccc(NC/C=C/c3cc(C(=N)N)ccc3O)cc2C(F)(F)F)CC1`, the Ki in test [1] was 0.1 nM; in test [2], 1100 nM; in test [6], 200 nM. In addition, the Ratio in test [3] came out at 2000. Moreover, the values for the Concentration in test [4] and in test [5] were 210 µM and 1.05 µM, respectively.

As for `CCOC(=O)CCC(=O)N(C/C=C/c1cccc(C(=N)N)c1)c1ccc(OC2CCN(C(C)=N)CC2)c(C(F)(F)F)c1`, the inhibitory constant (Ki) in test [1] came out at 0.55 nM; in test [2], 1000 nM; in test [6] it was 76 nM. Besides, the Ratio in test [3] came out at 140. Moreover, the Concentration was 32 µM in test [4] and 0.87 µM in test [5].

Turning to `CC(=O)N1CCC(Oc2ccc(N(C/C=C/c3cc(C(=N)N)ccc3O)C(=O)CCC(=O)O)cc2C(F)(F)F)CC1`, the inhibition constant Ki in test [1] is 3 nM; in test [2], above 5500 nM; in test [6], 891 nM. Further, the Concentration was 173 µM in test [4] and 3 µM in test [5].

Regarding `CC(=N)N1CCC(Oc2ccc(NC/C=C/c3cccc(C(=N)N)c3)cc2C(F)(F)F)CC1`, the Ki is 0.88 nM in test [1], 2140 nM in test [2] and 50 nM in test [6]. Further, the Concentration in test [4] was determined as 220 µM; in test [5] it was 0.8 µM.

As to `CN1CCC(Oc2ccc(NC/C=C/c3cc(C(=N)N)ccc3O)cc2C(F)(F)F)CC1`, the Ki in test [1] stood at 0.58 nM; in test [2], 1820 nM; in test [6], 630 nM. Further, the Concentration in test [4] is 156 µM; in test [5], 0.98 µM.

`N=C(N)c1ccc(O)c(/C=C/CNc2ccc(OC3CCN(C(N)=O)CC3)c(C(F)(F)F)c2)c1`: the Ki came out at 7.3 nM in test [1], 250 nM in test [2] and 520 nM in test [6].

For `CC(=N)N1CCC(Oc2ccc(NC/C=C/c3cccc(C(=N)N)c3)cc2[N+](=O)[O-])CC1`, the Ki in test [1] is 0.27 nM; in test [2], 2900 nM; in test [6] it was 27 nM.

Consider `CC(=N)N1CCC(Oc2ccc(N(C/C=C/c3cc(C(=N)N)ccc3O)C(=O)CCC(=O)O)cc2C(F)(F)F)CC1`, for which the figures for the Ki in test [1], in test [2] and in test [6] were 0.1 nM, 5140 nM and 280 nM, respectively. Further, in test [3], the Ratio was 2800. The Concentration in test [4] worked out at 174 µM; in test [5], 0.54 µM.

Turning to `N=C(N)c1ccc(O)c(/C=C/CN(C(=O)CCC(=O)O)c2ccc(OC3CCN(CC(=O)O)CC3)c(C(F)(F)F)c2)c1`, the inhibition constant Ki in test [1] was 0.34 nM; in test [2] it was above 5000 nM; in test [6], 870 nM.

As to `CS(=O)(=O)N1CCC(Oc2ccc(NC/C=C/c3cc(C(=N)N)ccc3O)cc2C(F)(F)F)CC1`, the inhibition constant (Ki) in test [1] came to 44 nM; in test [6], 1250 nM.

With `CC(=N)N1CCC(Oc2ccc3c(nc(C)n3Cc3ccc4ccc(C(=N)N)cc4c3)c2[N+](=O)[O-])CC1`, the figures for the inhibitory constant (Ki) in test [1], in test [2] and in test [6] were 0.3 nM, 5000 nM and 3 nM, respectively.

Turning to `CC(=N)N1CCC(Oc2ccc(N(C/C=C/c3cccc(C(=N)N)c3)C(=O)c3ccc(C(=O)O)c(C(=O)O)c3)cc2C(F)(F)F)CC1`, the inhibition constant Ki was found to be 0.56 nM in test [1], 3260 nM in test [2] and 10 nM in test [6]. In addition, the Concentration in test [4] was 200 µM; in test [5] it was 0.52 µM.

For `CC(=N)N1CCC(Oc2ccc(N(C/C=C/c3cccc(C(=N)N)c3)C(=O)CCC(=O)O)cc2C(F)(F)F)CC1`, the Ki in test [1] came out at 0.28 nM; in test [2] it was 5000 nM; in test [6], 110 nM. Moreover, the Concentration in test [4] came out at 540 µM; in test [5] it was 0.75 µM.

On to `CC(=O)N1CCC(Oc2ccc(NC/C=C/c3cc(C(=N)N)ccc3O)cc2C(F)(F)F)CC1`, for which the Ki in test [1] turned out to be 18.5 nM; in test [2], 480 nM; in test [6], 830 nM. Moreover, the results for the Concentration in test [4] and in test [5] were 151 µM and 21 µM, respectively.

Take `CCOC(=O)CCC(=O)N(C/C=C/c1cc(C(=N)N)ccc1O)c1ccc(OC2CCN(C(C)=N)CC2)c(C(F)(F)F)c1`: the values for the Ki in test [1], in test [2] and in test [6] were 0.07 nM, 2280 nM and 230 nM, respectively. Besides, the Ratio in test [3] turned out to be 3300. The values for the Concentration in test [4] and in test [5] were 265 µM and 0.8 µM, respectively.

Take `CC(=N)N1CCC(Oc2ccc(NC/C(C)=C/c3cccc(C(=N)N)c3)cc2[N+](=O)[O-])CC1`: the Ki is 0.07 nM in test [1], 1550 nM in test [2] and 5 nM in test [6].

In the case of `CN1CCC(Oc2ccc(N(C/C=C/c3cc(C(=N)N)ccc3O)C(=O)CCC(=O)O)cc2C(F)(F)F)CC1`, the Ki is 0.28 nM in test [1], above 5000 nM in test [2] and 765 nM in test [6].

In the case of `CC(=N)N1CCC(Oc2ccc(NCc3cccc(-c4cccc(C(=N)N)c4)c3)cc2[N+](=O)[O-])CC1`, the values for the inhibitory constant (Ki) in test [1], in test [2] and in test [6] were 0.17 nM, 400 nM and 42 nM, respectively.

In the case of `CCOC(=O)c1cc(NC/C=C/c2cccc(C(=N)N)c2)ccc1OC1CCN(C(C)=N)CC1`, the inhibitory constant (Ki) was 6.8 nM in test [1], 480 nM in test [2] and 40 nM in test [6]. The values for the Concentration in test [4] and in test [5] were 15 µM and 2.6 µM, respectively.

For `CC(=N)N1CCC(Oc2ccc(NC/C=C/c3cccc(C(=N)N)c3)cc2)CC1`, the Ki is 7.5 nM in test [1], 5000 nM in test [2] and 80 nM in test [6].

Regarding `CC(=N)N1CCC(Oc2ccc(NCc3ccc4ccc(C(=N)N)cc4c3)cc2[N+](=O)[O-])CC1`, the values for the Ki in test [1], in test [2] and in test [6] were 0.08 nM, 1960 nM and 7 nM, respectively.

As for `CC(=N)N1CCC(Oc2ccc(NC/C=C/c3cccc(C(=N)N)c3)cc2F)CC1`, the Ki was 4.1 nM in test [1], 4700 nM in test [2] and 70 nM in test [6]. The figures for the Concentration in test [4] and in test [5] were 240 µM and 0.73 µM, respectively.
